Assay results: US10604535B2, “Compounds, compositions and methods” (Denali Therapeutics Inc., priority 2016, dated 2020)

target: GST-hRIPK1 (8-327) (Homo sapiens (Human), UniProt Q13546); assay: Fluorescent Polarization Binding (FP Binding) assay
Sequence (Q13546 8-327): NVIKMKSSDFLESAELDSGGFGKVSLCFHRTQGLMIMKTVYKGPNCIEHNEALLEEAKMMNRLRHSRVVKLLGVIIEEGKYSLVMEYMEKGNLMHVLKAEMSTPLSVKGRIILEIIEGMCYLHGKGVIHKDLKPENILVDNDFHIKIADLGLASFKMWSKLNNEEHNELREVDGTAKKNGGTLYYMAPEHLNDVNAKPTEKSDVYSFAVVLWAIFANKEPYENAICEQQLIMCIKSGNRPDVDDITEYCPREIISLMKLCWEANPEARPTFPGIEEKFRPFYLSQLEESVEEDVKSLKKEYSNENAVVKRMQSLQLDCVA

| Structure (SMILES) | IC50 [nM] |
| --- | --- |
| O=C(N[C@@H]1CC2(CC2)c2cccnc2NC1=O)c1nnc(Cc2ccccc2)[nH]1 [Example 98A, (R)-5-benzyl-N-(8′-oxo-6′,7′,8′,9′-tetrahydrospiro[cyclopropane-1,5′-pyrido[2,3-b]azepin]-7′-yl)-4H-1,2,4-triazole-3-carboxamide] | > 3000 |
| C[C@@H]1Oc2cccnc2N(C)C(=O)[C@H]1NC(=O)c1nn(Cc2ccccc2)cc1F [Example 93, 1-benzyl-N-((2S,3S)-2,5-dimethyl-4-oxo-2,3,4,5-tetrahydropyrido[3,2-b][1,4]oxazepin-3-yl)-4-fluoro-1H-pyrazole-3-carboxamide] | 0.1 to 1000 |
| CN1C(=O)[C@H](NC(=O)c2cc(Oc3ccccc3F)ccn2)[C@@H]2C[C@@H]2c2cccnc21 [Example 100B, 4-(2-fluorophenoxy)-N-((1aR,2R,8bS)-4-methyl-3-oxo-1,1a,2,3,4,8b-hexahydrocyclopropa[d]pyrido[2,3-b]azepin-2-yl)picolinamide] | 0.1 to 1000 |
| Cc1cc2n(n1)CC[C@H](NC(=O)c1nnc(Cc3ccccc3)[nH]1)C(=O)N2C [Example 129A, (S)-5-Benzyl-N-(2,4-dimethyl-5-oxo-5,6,7,8-tetrahydro-4H-pyrazolo[1,5-a][1,3]diazepin-6-yl)-4H-1,2,4-triazole-3-carboxamide] | 0.1 to 1000 |
| O=C(N[C@H]1COc2cccnc2NC1=O)c1nnc(C2CCc3ccccc32)[nH]1 (single isomer, unassigned) [Example 102B] | 0.1 to 1000 |
| CN1C(=O)[C@@H](NC(=O)c2cc(Oc3ccc(F)cc3F)ccn2)CCc2cccnc21 [Example 121B, (S)-4-(2,4-difluorophenoxy)-N-(9-methyl-8-oxo-6,7,8,9-tetrahydro-5H-pyrido[2,3-b]azepin-7-yl)picolinamide] | 0.1 to 1000 |
| CN1C(=O)[C@@H](NC(=O)C2CN(Cc3ccccc3)C2)COc2ccccc21 [Example 33, (S)-1-benzyl-N-(5-methyl-4-oxo-2,3,4,5-tetrahydrobenzo[b][1,4]oxazepin-3-yl) azetidine-3-carboxamide] | > 10000 |
| C[C@@H]1Oc2cccnc2N(C)C(=O)[C@H]1NC(=O)c1nnc(Cc2ccccc2)[nH]1 [Example 95, 5-benzyl-N-((2S,3S)-2,5-dimethyl-4-oxo-2,3,4,5-tetrahydropyrido[3,2-b][1,4]oxazepin-3-yl)-4H-1,2,4-triazole-3-carboxamide] | > 3000 |
| CN1C(=O)[C@H](NC(=O)c2nn(Cc3ccc(F)cc3)cc2F)[C@@H]2C[C@@H]2c2cccnc21 [Example 156A, 4-fluoro-1-(4-fluorobenzyl)-N-((1aR,2R,8bS)-4-methyl-3-oxo-1,1a,2,3,4,8b-hexahydrocyclopropa[d]pyrido[2,3-b]azepin-2-yl)-1H-pyrazole-3-carboxamide] | > 3000 |
| [2H]C([2H])([2H])N1C(=O)[C@H](NC(=O)c2nn(Cc3ccccc3)cc2F)[C@@H]2C[C@@H]2c2cc(S(C)(=O)=O)ccc21 [Example 183A, 1-benzyl-4-fluoro-N-((1aR,2R,8bS)-4-trideuteriomethyl-7-(methylsulfonyl)-3-oxo-1,1a,2,3,4,8b-hexahydrobenzo[b]cyclopropa[d]azepin-2-yl)-1H-pyrazole-3-carboxamide] | > 3000 |
| CN1C(=O)[C@@H](NC(=O)c2ncc(Cc3ccccc3)o2)[C@H]2C[C@H]2c2nccnc21 [Example 194, 5-benzyl-N-((7S,7aS,8aR)-5-methyl-6-oxo-5,6,7,7a,8,8a-hexahydrocyclopropa[d]pyrazino[2,3-b]azepin-7-yl)oxazole-2-carboxamide] | 0.1 to 1000 |
| CN1C(=O)[C@@H](NC(=O)c2cc(CC(F)(F)F)on2)COc2ccccc21 [Example 14, (S)—N-(5-methyl-4-oxo-2,3,4,5-tetrahydrobenzo[b][1,4]oxazepin-3-yl)-5-(2,2,2-trifluoroethyl)isoxazole-3-carboxamide] | 0.1 to 1000 |
| CN1C(=O)[C@H](NC(=O)c2nn(Cc3ccccc3F)cc2F)[C@@H]2C[C@@H]2c2nccnc21 [Example 179B, 4-fluoro-1-(2-fluorobenzyl)-N-((7R,7aR,8aS)-5-methyl-6-oxo-5,6,7,7a,8,8a-hexahydrocyclopropa[d]pyrazino[2,3-b]azepin-7-yl)-1H-pyrazole-3-carboxamide] | > 3000 |

Continued, values first:

| IC50 [nM] | Structure (SMILES) |
| --- | --- |
| 0.1 to 1000 | C[C@H]1Oc2ncccc2N(C)C(=O)[C@H]1NC(=O)c1nnc(Cc2ccccc2)o1 [Example 193, 5-benzyl-N-((3S,4R)-1,4-dimethyl-2-oxo-1,2,3,4-tetrahydropyrido[2,3-b][1,4]oxazepin-3-yl)-1,3,4-oxadiazole-2-carboxamide] |
| 1000 to 10000 | CN1C(=O)[C@@H](NC(=O)c2ncc(S(=O)(=O)c3ccccc3)s2)COc2ccccc21 [Example 49, (S)—N-(5-methyl-4-oxo-2,3,4,5-tetrahydrobenzo[b][1,4]oxazepin-3-yl)-5-(phenylsulfonyl)thiazole-2-carboxamide] |
| > 3000 | CN1C(=O)[C@H](NC(=O)c2nnc(Cc3ccccc3)[nH]2)CCc2c1cnn2C [Example 101A, (R)-5-benzyl-N-(1,4-dimethyl-5-oxo-1,4,5,6,7,8-hexahydropyrazolo[4,3-b]azepin-6-yl)-4H-1,2,4-triazole-3-carboxamide] |
| > 3000 | CN1C(=O)[C@H](NC(=O)c2nn(Cc3ccccc3)cc2F)CCc2c1cnn2C [Example 114B, (R)-1-benzyl-N-(1,4-dimethyl-5-oxo-1,4,5,6,7,8-hexahydropyrazolo[4,3-b]azepin-6-yl)-4-fluoro-1H-pyrazole-3-carboxamide] |
| 0.1 to 1000 | O=C(N[C@H]1CC2(CC2)c2cccnc2NC1=O)c1nnc(Cc2ccccc2)[nH]1 [Example 98B, (S)-5-benzyl-N-(8′-oxo-6′,7′,8′,9′-tetrahydrospiro[cyclopropane-1,5′-pyrido[2,3-b]azepin]-7′-yl)-4H-1,2,4-triazole-3-carboxamide] |
| > 3000 | CN1C(=O)[C@H](NC(=O)c2nn(Cc3ccccc3F)cc2F)CCc2nccnc21 [Example 178B, (R)-4-fluoro-1-(2-fluorobenzyl)-N-(5-methyl-6-oxo-6,7,8,9-tetrahydro-5H-pyrazino[2,3-b]azepin-7-yl)-1H-pyrazole-3-carboxamide] |
| > 3000 | Cc1ncccc1Cn1cc(F)c(C(=O)N[C@@H]2CCc3nccnc3N(C)C2=O)n1 [Example 182A, (R)-4-fluoro-N-(5-methyl-6-oxo-6,7,8,9-tetrahydro-5H-pyrazino[2,3-b]azepin-7-yl)-1-((2-methylpyridin-3-yl)methyl)-1H-pyrazole-3-carboxamide] |
| 0.1 to 1000 | O=C(N[C@H]1COc2cccnc2-n2ccnc21)c1nnc(Cc2ccccc2)[nH]1 [Example 141B, (R)-5-benzyl-N-(6,7-dihydroimidazo[1,2-d]pyrido[3,2-b][1,4]oxazepin-7-yl)-4H-1,2,4-triazole-3-carboxamide] |
| 0.1 to 1000 | CN1C(=O)[C@@H](NC(=O)c2nn(Cc3cnn(C)c3)cc2F)COc2cccnc21 [Example 184, (S)-4-fluoro-1-((1-methyl-1H-pyrazol-4-yl)methyl)-N-(5-methyl-4-oxo-2,3,4,5-tetrahydropyrido[3,2-b][1,4]oxazepin-3-yl)-1H-pyrazole-3-carboxamide] |
| > 3000 | Cc1cc2n(n1)CC[C@@H](NC(=O)c1nnc(Cc3ccccc3)[nH]1)C(=O)N2C [Example 129B, (R)-5-Benzyl-N-(2,4-dimethyl-5-oxo-5,6,7,8-tetrahydro-4H-pyrazolo[1,5-a][1,3]diazepin-6-yl)-4H-1,2,4-triazole-3-carboxamide] |
| > 3000 | O=C(N[C@@H]1CC2(CC2)c2cc(F)cc(F)c2NC1=O)c1nnc(Cc2ccccc2)[nH]1 [Example 103A, (R)-5-benzyl-N-(7,9-difluoro-2-oxo-1,2,3,4-tetrahydrospiro[benzo[b]azepine-5,1′-cyclopropan]-3-yl)-4H-1,2,4-triazole-3-carboxamide] |
| 0.1 to 1000 | CN1C(=O)[C@@H](NC(=O)c2cc3n(n2)CC[C@@H]3c2ccccc2)COc2ccccc21 [Example 13, (R)—N—((S)-5-methyl-4-oxo-2,3,4,5-tetrahydrobenzo[b][1,4]oxazepin-3-yl)-4-phenyl-5,6-dihydro-4H-pyrrolo[1,2-b]pyrazole-2-carboxamide] |
| > 3000 | CN1C(=O)[C@H](NC(=O)c2nn(Cc3cccc(C#N)c3)cc2F)CCc2cccnc21 [Example 152A, (R)-1-(3-cyanobenzyl)-4-fluoro-N-(9-methyl-8-oxo-6,7,8,9-tetrahydro-5H-pyrido[2,3-b]azepin-7-yl)-1H-pyrazole-3-carboxamide] |
| 1000 to 10000 | CN1C(=O)[C@H](NC(=O)c2nn(Cc3ccccc3)cc2F)CCc2cccnc21 [Example 111A, (R)-1-benzyl-4-fluoro-N-(9-methyl-8-oxo-6,7,8,9-tetrahydro-5H-pyrido[2,3-b]azepin-7-yl)-1H-pyrazole-3-carboxamide] |
| 0.1 to 1000 | CN1C(=O)[C@@H](NC(=O)c2nnc(Cc3ccccc3)o2)CCc2nccnc21 [Example 190, (S)-5-benzyl-N-(5-methyl-6-oxo-6,7,8,9-tetrahydro-5H-pyrazino[2,3-b]azepin-7-yl)-1,3,4-oxadiazole-2-carboxamide] |
| > 3000 | CN1C(=O)[C@H](NC(=O)c2nnc(Cc3ccccc3)o2)[C@@H]2C[C@@H]2c2cccnc21 [Example 157A, 5-benzyl-N-((1aR,2R,8bS)-4-methyl-3-oxo-1,1a,2,3,4,8b-hexahydrocyclopropa[d]pyrido[2,3-b]azepin-2-yl)-1,3,4-oxadiazole-2-carboxamide] |
| 1000 to 10000 | CN1C(=O)[C@@H](NC(=O)[C@H]2C[C@@H]2Cc2ccccc2)COc2ccccc21 (single isomer, unassigned) [Example 50B] |
| > 3000 | CN1C(=O)[C@H](NC(=O)c2nnc(C3(c4ccccc4)CC3)o2)CCc2cccnc21 [Example 145B, (R)—N-(9-methyl-8-oxo-6,7,8,9-tetrahydro-5H-pyrido[2,3-b]azepin-7-yl)-5-(1-phenylcyclopropyl)-1,3,4-oxadiazole-2-carboxamide] |
| 1000 to 10000 | Cn1ncc2c1CC[C@H](NC(=O)c1nnc(Cc3ccccc3)[nH]1)C(=O)N2 [Example 118B, (S)-5-benzyl-N-(1-methyl-5-oxo-1,4,5,6,7,8-hexahydropyrazolo[4,3-b]azepin-6-yl)-4H-1,2,4-triazole-3-carboxamide] |
